Literature values, collected in patent publication USRE50805E1, “Single-layer oral dose of neuro-attenuating ketamine” (ACADIA Pharmaceuticals Inc., priority 2013, dated 2026).
Counter-ions that a name gives are not always drawn.

Legend:
[1] = after oral administration, background statement
[2] = not given; remark: listed apart in the source

Compound | elimination half-life [1] [h] | optimal efficacy plasma concentration (exceeding it leads to more pronounced side effects) [ng/mL] | blood concentration level above which side effects may become more pronounced (in vivo) | solubility in water [2]
CNC1(c2ccccc2Cl)CCCCC1=O (racemic) [ketamine, (R,S)—2-(2-chlorophenyl)-2-(methylamino) cyclohexanone] | 2 to 3 | 10 to 300 | above 300 ng/L | 
CNC1(c2ccccc2Cl)CCCCC1=O (centres unmarked) [ketamine hydrochloride] |  |  |  | about 200 mg/ml
NC1(c2ccccc2Cl)CCCCC1=O (racemic) [norketamine, (R,S)—2-(2-chlorophenyl)-2-(amino) cyclohexanone] | 4 |  |  | 
